One data set deals with Cytochrome P450 3A4 (Homo sapiens, UniProt P08684).
Data set [1] in a line: inhibitors of intracellular T. cruzi replication, confirmation, NIH3T3 host cells, beta-gal luminescence (AID 2044).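 Note: intracellular parasites grown in NIH/3T3 mouse fibroblasts as host cells; luminescent beta-galactosidase reporter signal from transgenic T. cruzi replicating inside host cells; inhibitors lower the luminescence signal.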 It is filed as functional, cell-based.
A short description of data set [2]: cytotoxicity toward NIH3T3 fibroblasts, dose response, counter-screen, cell-based, ATP luminescence, mouse fibroblasts (AID 2010).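 Note: cells exposed to compound for about 90 hours before reading.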 It counts as functional. (A counterscreen serves to expose hits that act by an unwanted route or on another target.)
The next data set deals with Cytochrome P450 2C19 (Homo sapiens, UniProt P33261). In words: Cytochrome panel assay with activity outcomes. Panel member name: p450-cyp2c19 Compounds with AC50 equal or less than 10 uM are considered active. It is filed as functional.
Cytochrome P450 2C19, sequence (P33261 whole entry): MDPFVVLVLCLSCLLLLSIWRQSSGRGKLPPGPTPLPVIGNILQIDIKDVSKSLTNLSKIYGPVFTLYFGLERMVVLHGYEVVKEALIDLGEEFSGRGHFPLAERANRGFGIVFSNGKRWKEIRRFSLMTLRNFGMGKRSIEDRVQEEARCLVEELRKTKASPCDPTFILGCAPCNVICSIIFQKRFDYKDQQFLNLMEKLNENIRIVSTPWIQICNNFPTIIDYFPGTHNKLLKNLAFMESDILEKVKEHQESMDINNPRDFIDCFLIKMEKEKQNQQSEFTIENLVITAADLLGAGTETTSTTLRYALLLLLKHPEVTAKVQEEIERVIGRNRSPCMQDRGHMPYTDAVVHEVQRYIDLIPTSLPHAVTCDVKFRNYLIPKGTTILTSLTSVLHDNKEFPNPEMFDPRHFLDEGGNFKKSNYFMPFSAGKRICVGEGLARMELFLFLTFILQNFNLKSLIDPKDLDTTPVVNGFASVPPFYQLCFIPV
A further data set deals with Cytochrome P450 2C9 (Homo sapiens, UniProt P11712).
Cytochrome P450 2C9, sequence (P11712 whole entry): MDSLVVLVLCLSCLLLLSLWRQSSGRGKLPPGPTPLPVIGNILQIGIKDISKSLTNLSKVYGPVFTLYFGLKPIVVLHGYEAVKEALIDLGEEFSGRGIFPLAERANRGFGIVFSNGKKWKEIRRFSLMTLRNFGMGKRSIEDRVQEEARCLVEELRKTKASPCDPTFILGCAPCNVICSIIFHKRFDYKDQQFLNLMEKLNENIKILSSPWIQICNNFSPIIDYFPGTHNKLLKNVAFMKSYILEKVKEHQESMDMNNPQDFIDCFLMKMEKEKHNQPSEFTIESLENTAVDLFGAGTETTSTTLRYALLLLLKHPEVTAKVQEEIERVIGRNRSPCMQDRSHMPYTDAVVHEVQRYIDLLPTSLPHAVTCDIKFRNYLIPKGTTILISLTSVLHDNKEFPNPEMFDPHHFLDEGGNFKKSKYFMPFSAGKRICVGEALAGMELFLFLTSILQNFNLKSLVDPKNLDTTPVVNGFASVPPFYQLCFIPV
A further data set concerns H4. The data set is described as follows: Luminescence Cell-Based Dose Response HTS to Identify Activators of 5'UTR Stem-Loop Driven Prion Protein mRNA Translation in H4 Neuroglioblastoma Cells. [Related pubchem assays: 1829 (Project Summary), 1814 (Primary HTS)]. It is filed as functional. To be noted: Homo sapiens.

Drawing on ChEMBL document CHEMBL1201862, “PubChem BioAssay data set” (2004), this text covers AC50 and EC50 for 50 compounds.

Activity calls are given as the source filed them.

Cytochrome P450 3A4, sequence (P08684 whole entry): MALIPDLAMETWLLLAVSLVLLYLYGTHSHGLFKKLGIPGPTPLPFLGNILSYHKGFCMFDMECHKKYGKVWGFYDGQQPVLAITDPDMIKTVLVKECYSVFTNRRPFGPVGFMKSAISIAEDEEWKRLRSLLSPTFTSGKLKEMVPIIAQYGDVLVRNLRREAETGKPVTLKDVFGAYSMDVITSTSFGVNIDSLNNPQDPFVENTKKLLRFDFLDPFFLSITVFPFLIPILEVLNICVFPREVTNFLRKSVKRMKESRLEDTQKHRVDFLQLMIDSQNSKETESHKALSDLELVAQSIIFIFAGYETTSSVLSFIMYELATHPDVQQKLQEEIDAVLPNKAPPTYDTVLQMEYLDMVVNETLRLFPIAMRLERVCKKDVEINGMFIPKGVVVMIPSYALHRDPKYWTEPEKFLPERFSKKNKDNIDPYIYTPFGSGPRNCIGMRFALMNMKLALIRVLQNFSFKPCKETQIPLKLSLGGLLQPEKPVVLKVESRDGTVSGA

Regarding `OCCN=c1cc(-c2ccccc2)oc2ccc(Cl)cc12`, the AC50 at Cytochrome P450 3A4 is 10 µM (inconclusive).

Take `CCC1Oc2ccc(C)cc2N(CC(=O)N(Cc2cccnc2)Cc2cccc(F)c2)C1=O` (stereo not drawn): the results for the EC50 in data set [1] and in data set [2] were 0.145 µM (active) and > 60 µM (not active), respectively.

In the case of `COCCn1c(=O)c(C)nc2cnc(Oc3ccccc3)nc21`, the concentration at half-maximal activity (AC50) is 39.8 µM (inconclusive) on Cytochrome P450 2C19 (read-out: AC50) and 25.1 µM (inconclusive) on Cytochrome P450 3A4.

`O=C(N/N=C/c1c(Nc2cccc(C(F)(F)F)c2)nc2ccccn2c1=O)c1ccccc1`: at Cytochrome P450 2C9, the AC50 is 12.6 µM (inconclusive).

As for `O=C(O)/C(Cc1ccc([N+](=O)[O-])cc1)=N/O`, the AC50 on Cytochrome P450 2C19 (read-out: AC50) was 5.01 µM (inconclusive).

Consider `O=c1c(-c2cccc(F)c2)nc2cncnc2n1-c1ccccc1`, for which the concentration at half-maximal activity (AC50) at Cytochrome P450 3A4 was 20 µM (inconclusive).

In the case of `COc1ccc2[nH]c3c(c2c1)CCN1C(=O)N([C@@H](C)C(=O)NC2CCN(Cc4ccccc4)CC2)C(=O)[C@]31C`, the values for the EC50 in data set [1] and in data set [2] were 0.122 µM (active) and > 60 µM (not active), respectively.

In the case of `CCOc1ccc(-n2c(SCc3nc(-c4ccc(C)cc4)no3)nnc2-c2ccncc2)cc1`, the half-maximal effective concentration (EC50) was 1.31 µM (active) in data set [1] and 6.76 µM (active) in data set [2].

As for `Cc1cc(N2C(=O)C(O)=C(C(=O)c3cccs3)C2c2cccc(O)c2)no1` (stereo not drawn), the AC50 on Cytochrome P450 2C19 (read-out: AC50) is 31.6 µM (inconclusive).

As for `Cc1ccc(N=Nc2c(=O)[nH]n3c(C)cc(C)nc23)cc1`, the results for the half-maximal activity concentration (AC50) on Cytochrome P450 2C19 (read-out: AC50) and at Cytochrome P450 3A4 were 39.8 µM (inconclusive) and 25.1 µM (inconclusive), respectively.

Regarding `Cc1ccc(-n2c(C)cc(C(=O)COC(=O)c3cccnc3O)c2C)cc1`, the EC50 in the data set with H4 is > 120 µM (not active).

As to `COc1cccc(CNCCc2cccc(F)c2)c1OC`, the EC50 in data set [1] is 0.828 µM (active); in data set [2] it was > 60 µM (not active).

Consider `CCCC[C@@H]1CN2[C@H](c3ccc(Br)cc3)[C@@H](C)CC[C@H]2C(=O)O1`, for which, at Cytochrome P450 3A4, the half-maximal activity concentration (AC50) was 5.01 µM (inconclusive).

With `Cc1cccc(N/C=C(\[N+](=O)[O-])S(=O)(=O)c2ccccc2)c1C`, the figures for the EC50 in data set [1] and in data set [2] were > 60 µM (not active) and > 60 µM (inconclusive), respectively.

Turning to `Cc1ccccc1-c1ccc2ncnc(N(C)C)c2c1`, at Cytochrome P450 2C9, the half-maximal activity concentration (AC50) was 0.398 µM (inconclusive).

On to `COc1cc(C(=O)NC(=S)Nc2ccc(Cl)c(C(=O)O)c2)cc(OC)c1OC`, for which the half-maximal activity concentration (AC50) on Cytochrome P450 2C9 was 28.2 µM (inconclusive).

As for `COc1ccc(C(=O)CCN(C)C)c2ccccc12`, the half-maximal activity concentration (AC50) at Cytochrome P450 3A4 was 0.316 µM (inconclusive).

For `c1ccc(Cn2c3ccccc3c3nnc(SCCN4CCCCC4)nc32)cc1`, the EC50 in data set [1] was 0.489 µM (active); in data set [2], > 60 µM (not active).

In the case of `CC(=O)NCCNc1ncnc2ccc(-c3cccc(NS(C)(=O)=O)c3)cc12`, the half-maximal activity concentration (AC50) at Cytochrome P450 3A4 is 7.94 µM (inconclusive).

`O=S(=O)(c1ccccc1)N1CN2CN(C1)CN(S(=O)(=O)c1ccccc1)C2`: the concentration at half-maximal activity (AC50) at Cytochrome P450 2C9 was 0.631 µM (inconclusive).

As to `Cn1c(=O)c2c3c(sc2n2cnnc12)CCC3`, the AC50 result on Cytochrome P450 2C19 is listed as “inconclusive”.

On to `Cn1c(=O)c2c(nc(Cc3ccccc3)n2CC(=O)O)n(C)c1=O`, for which the half-maximal activity concentration (AC50) result on Cytochrome P450 2C19 is reported as “inconclusive”.

In the case of `COc1ccc(Cc2nc3cc(S(=O)(=O)N4CCOCC4)ccc3[nH]2)cc1OC`, on Cytochrome P450 2C19 (read-out: AC50), the half-maximal activity concentration (AC50) was 25.1 µM (inconclusive).

On to `Cc1ccc(S(=O)(=O)c2nnn3c2nc(NC2CCN(Cc4ccccc4)CC2)c2ccccc23)cc1C`, for which the figures for the EC50 in data set [1] and in data set [2] were 1.24 µM (active) and > 30 µM (not active), respectively.

For the compound `CN[C@@H](c1ccncc1)[C@@H](NC)c1ccncc1`, the concentration at half-maximal activity (AC50) at Cytochrome P450 2C19 (read-out: AC50) is 3.16 µM (inconclusive).

Take `Cc1ccc(N[C@H](c2ccccc2)c2ccc3cccnc3c2O)cc1`: the half-maximal activity concentration (AC50) was 3.98 µM (inconclusive) at Cytochrome P450 2C19 (read-out: AC50), 3.16 µM (inconclusive) at Cytochrome P450 3A4 and 3.98 µM (inconclusive) at Cytochrome P450 2C9.

With `COc1ccc(/C=C/C(=O)N2c3ccccc3Sc3ccc(C(F)(F)F)cc32)cc1`, the EC50 in data set [1] is 2.8 µM (active); in data set [2], > 60 µM (not active).

In the case of `Cc1cccc(CNc2ncncc2-c2ccccc2C)c1`, the concentration at half-maximal activity (AC50) at Cytochrome P450 2C9 is 1.26 µM (inconclusive).

For the compound `CCOc1ccc(N2C(=O)/C(=C/c3cc(OC)c(OC)c(OC)c3)N(CC(=O)OC)C2=S)cc1`, the AC50 was 15.8 µM (inconclusive) at Cytochrome P450 3A4 and 1.41 µM (inconclusive) at Cytochrome P450 2C9.

`Cc1ccc(NC(=O)CN2C(=O)S/C(=C\c3cccn3C)C2=O)cc1`: the AC50 on Cytochrome P450 3A4 is 7.08 µM (inconclusive).

For `CCCCC1CC(/C(C)=N/NC(N)=O)OC1=O` (stereo not drawn), on Cytochrome P450 2C9, the concentration at half-maximal activity (AC50) was 20 µM (inconclusive).

For the compound `COc1ccc(S(=O)(=O)N2CCCN(CC(=O)Nc3ccc(OC)c(Cl)c3)CC2)cc1`, on Cytochrome P450 2C9, the AC50 was 39.8 µM (inconclusive).

`CCOc1ccc(C(=O)C2=C(O)C(=O)N(CCOCCO)C2c2ccccc2OC)cc1` (stereo not drawn): the concentration at half-maximal activity (AC50) at Cytochrome P450 2C19 (read-out: AC50) is 25.1 µM (inconclusive).

As for `COc1ccccc1CN1CCN(Cc2nc(-c3cccs3)no2)CC1`, the concentration giving a half-maximal response (EC50) in data set [1] was 0.841 µM (active); in data set [2] it was > 60 µM (not active).

On to `COc1ccc(Cc2noc(CN3CCCN(Cc4ccc(F)cc4)CC3)n2)cc1OC`, for which the EC50 is 0.248 µM (active) in data set [1] and > 60 µM (not active) in data set [2].

As for `c1ccc(CNc2ncncc2-c2ccc3c(c2)OCO3)cc1`, at Cytochrome P450 2C9, the half-maximal activity concentration (AC50) was 0.316 µM (inconclusive).

Consider `N=C(NC(=O)c1ccccc1F)Nc1nc2ccccc2o1`, for which the AC50 at Cytochrome P450 2C19 (read-out: AC50) was 22.4 µM (inconclusive).

As to `COc1ccc(C(CC(=O)Nc2cc(OC)cc(OC)c2)n2cccc2)cc1` (stereo not drawn), the EC50 in data set [1] was 2.45 µM (active); in data set [2], > 60 µM (not active).

For `Nc1c(C(=O)Nc2ccccc2)c2nc3ccccc3nc2n1-c1ccc(O)cc1`, the EC50 in data set [1] is 2.07 µM (active); in data set [2], 15.9 µM (active).

Consider `COCCNc1nc(-c2ccccc2C)nc2ccccc12`, for which, on Cytochrome P450 3A4, the AC50 is 12.6 µM (inconclusive).

Turning to `CC1(C)C([N+](=O)[O-])C(c2ccc(Cl)cc2)NC(c2ccc(Cl)cc2)C1[N+](=O)[O-]` (stereo not drawn), the EC50 in data set [1] is 2 µM (active); in data set [2], > 60 µM (inconclusive).

`Cc1ccc2nc(N(CCN(C)C)C(=O)c3ccc4c(c3)OCCO4)sc2c1`: the concentration for a half-maximal effect (EC50) is 0.104 µM (active) in data set [1] and > 60 µM (not active) in data set [2].

For `CCn1nnnc1SCC(=O)c1ccc2c(c1)OCCO2`, on Cytochrome P450 2C9, the half-maximal activity concentration (AC50) was 17.8 µM (inconclusive).

For `COCCn1c(=O)c(-c2ccccc2)nc2cnc(OCc3ccccc3)nc21`, the half-maximal activity concentration (AC50) on Cytochrome P450 2C19 (read-out: AC50) was 20 µM (inconclusive).

On to `Cc1ccsc1C(=O)C1CCCN(Cc2cnc(N3CCOCC3)s2)C1` (stereo not drawn), for which the 50% effective concentration (EC50) in data set [1] is 0.146 µM (active); in data set [2], > 60 µM (not active).

In the case of `Cc1cccc(C(=O)c2ccccc2C(=O)O)c1O`, the AC50 was 25.1 µM (inconclusive) on Cytochrome P450 3A4 and 0.1 µM (inconclusive) at Cytochrome P450 2C9.

On to `COC(=O)Cn1cc(/C=N/NC(=O)c2ccc(C#N)cc2F)c2ccccc21`, for which the AC50 at Cytochrome P450 2C19 (read-out: AC50) was 22.4 µM (inconclusive); at Cytochrome P450 2C9, 8.91 µM (inconclusive).

Take `Cn1c(-c2nnn(-c3ccc(F)cc3)n2)cc2ccccc21`: in the data set on H4, the concentration giving a half-maximal response (EC50) was 36.6 µM (active).

As for `CCn1c(SCc2ccc(C(=O)Nc3nccs3)cc2)nnc1-c1ccc(NC(C)=O)cc1`, the half-maximal activity concentration (AC50) at Cytochrome P450 3A4 is 1.12 µM (inconclusive).

On to `O=C(CSc1nc(C2CC2)nc2ccccc12)N1c2ccccc2Sc2ccccc21`, for which the values for the half-maximal effective concentration (EC50) in data set [1] and in data set [2] were 4.43 µM (active) and > 60 µM (not active), respectively.

A word on the AC50: it is the concentration giving half of the maximal activity seen. As usually defined, the EC50 is the concentration at which the effect is half-maximal.
